Where no end group is shown, it is not given here. Side-chain parts run from the residue outwards. rhodamine‑labelled PEGylated perfluoro‑15‑crown‑5 ether nanoemulsion = not defined here; carboxyfluorescein = N-terminal fluorescence label (CF)

The subject of one series is human neutrophils. As to the kind of experiment: 1H/19F MRI of human neutrophils incubated with hNPPFCs/ConPFCs (healthy and STEMI). It is filed as cell-based. Conditions: versus ConPFC controls. How it is done:
After the incubation period, cells were subjected to density gradient centrifugation to separate PFC-loaded cells from free PFCs. Afterward, samples were analyzed by MRI to determine the ^19F signal within the cell layer as described previously.
To determine PFC uptake by human neutrophils by ^19F MRI, cells were isolated from 10 ml of whole blood by density centrifugation. Subsequently, neutrophils (5 × 10^6) were resuspended in 3 ml DMEM and incubated for up to 8 h at 37 °C under constant motion with 10 µl ^hNPPFCs. Afterward, cells were centrifuged at 350g, washed three times with PBS, resuspended in 1 ml MACS buffer, purified by Percoll gradient centrifugation and analyzed by ^1H/^19F MRI.

Series [1] can be described thus: Liver serum markers after PFC injection. It is filed as in vivo, mouse. As to conditions: i.v. over 3 consecutive days, 24 h after last injection. How it is done:
^ConPFCs, ^mNPPFCs (each at 1 mM per kg BW) or saline were injected i.v. over 3 consecutive days. Twenty-four hours after the last injection, mice were killed, and blood samples were withdrawn to determine GLDH, AST, ALP, ALT and bilirubin levels by standard clinical procedures. Furthermore, the liver and spleen were dissected, fixed in formalin and snap frozen. Subsequently, 4-µm cryosections were cut and stained with hematoxylin and eosin as described previously.
Extended Data Fig. 3 Assessment of ^mNPPFC/^ConPFC biodistribution, liver serum markers and histology of liver and spleen. a, Biodistribution of intravenously injected ^mNPPFCs was determined via ^19F MRI measurements at distinct time points after injection (1, 3, 6 and 24 h after injection). Shown are quantification of fluorine signal intensities in the blood, liver and spleen indicating a fast wash-out from the blood accompanied by a strong influx into the liver while signal intensities in the spleen were constant over the entire observation period; a.u. = arbitrary units. b, Serum levels of GLDH (glutamate dehydrogenase), AST (aspartate aminotransferase), ALP (alkaline phosphatase), ALT (alanine aminotransferase) and bilirubin after intravenous application of NaCl as control, ^ConPFCs or ^mNPPFCs. c + d, 4 µm sections of liver (C) and spleen (D) stained with hematoxylin and eosin. Organs were excised and processed for histology 24 h post injection of NaCl (upper row), ^ConPFCs (middle), ^mNPPFCs (lower). Representative liver/spleen images of organs from three different animals are shown. Scale bars indicate 100 µm. Data are mean values ± SD of n = 6 (a), n = 4-6 (b) and n = 6 (c + d) independent experiments. Source data

With “hNPPFCs: PEGylated rhodamine-labeled perfluorocarbon nanoemulsion coupled with human neutrophil-specific peptide hNP (carboxyfluorescein-DLVTSKLQVGGGC; also: C-terminal Cys coupled via maleimide-PEG2000-DSPE to rhodamine-labelled perfluorocarbon nanoemulsion)”, the “19F signal of human neutrophils exposed to PFCs (1H/19F MRI)” value in the series with human neutrophils is recorded as “significantly stronger”.

With “mNPPFCs: PEGylated rhodamine-labeled perfluoro-15-crown-5 ether nanoemulsion (maleimide PFCs) coupled with murine neutrophil-specific peptide mNP (carboxyfluorescein-DFYKPMPNLRITGGGC([maleimide‑PEG2000‑DSPE-rhodamine‑labelled PEGylated perfluoro‑15‑crown‑5 ether nanoemulsion]); reading uncertain; also: printed as DFYKPMPNLRIT-GGG-C)”, in series [1], the “adverse side effects (liver serum markers, histology of liver and spleen)” value is “neither analysis of liver serum markers (GLDH, AST, ALP, ALT, bilirubin) nor histological examination of the liver and spleen revealed any evidence for adverse side effects”.
